# From patent publication US6355799B1, “Substituted benzene compounds, process for their preparation, and herbicidal and defoliant compositions containing them” (ISK Americas Incorporated, priority 1997, dated 2002)
# Assays:
# Format in all cases: in vivo
# [1] = tested on: upland rice (Oryza sp., var. Tebonnet, RICE); test: Post-emerge test, crop safety; conditions: post-emerge, 14 days after application, rating scale 0-100
# Procedure, shortened: (§1)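 Sandy loam pots; pre-emerge: sown 1 d pre-spray, surface-watered after, then bottom-watered. Post-emerge: sown 8–21 d before, 2–3 leaf stage, + 0.25% v/v NIS, bottom-watered. Acetone, 187 l/ha track spray, 15–1000 g ai/ha. 0–100 injury score, day 14.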
# [2] = tested on: field corn (Zea mays L., var. Dekalb 535, CORN); test: Post-emerge test, crop safety; conditions: post-emerge, 14 days after application, rating scale 0-100
# Procedure, shortened: as §1
# [3] = tested on: redroot pigweed (Amaranthus retroflexus, AMARE); test: Pre-emerge test, greenhouse herbicide activity screening; conditions: pre-emerge, 14 days after application
# Procedure, shortened: (§2)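 Herbicidal damage is scored 0 (none) to 100 (complete plant death) two weeks after a simulated field spray. Rates span 15–1000 g ai/ha, delivered in acetone at 187 l/ha. For post-emergence treatments, plants have 2–3 leaves and the spray carries 0.25% v/v non-ionic surfactant.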
# [4] = tested on: redroot pigweed (Amaranthus retroflexus, AMARE); test: Post-emerge test, greenhouse herbicide activity screening; conditions: post-emerge, 14 days after application
# Procedure, shortened: as §2
# [5] = tested on: sicklepod (Cassia obtusifolia, CASOB); test: as above; conditions: post-emerge, 14 days after application, rating scale 0-100
# Procedure, shortened: as §2
# [6] = tested on: large crabgrass (Digitaria sanguinalis, DIGSA); test: as above; conditions: post-emerge, 14 days after application, rating scale 0-100
# Procedure, shortened: as §2
# [7] = tested on: green foxtail (Setaria viridis, SETVI); test: as above; conditions: post-emerge, 14 days after application, rating scale 0-100
# Procedure, shortened: as §2
# [8] = tested on: velvetleaf (Abutilon theophrasti, ABUTH); test: as above; conditions: post-emerge, 14 days after application, rating scale 0-100
# Procedure, shortened: as §2
# [9] = tested on: barnyardgrass (Echinochloa crus-galli, ECHCG); test: as above; conditions: post-emerge, 14 days after application, rating scale 0-100
# Procedure, shortened: as §2
# [10] = tested on: ivyleaf morningglory (Ipomoea hederacea, IPOHE); test: as above; conditions: post-emerge, 14 days after application, rating scale 0-100
# Procedure, shortened: as §2
# [11] = tested on: sicklepod (Cassia obtusifolia, CASOB); test: Pre-emerge test, greenhouse herbicide activity screening; conditions: pre-emerge, 14 days after application
# Procedure, shortened: as §1
# [12] = tested on: large crabgrass (Digitaria sanguinalis, DIGSA); test: as above; conditions: pre-emerge, 14 days after application
# Procedure, shortened: as §1
# [13] = tested on: lambsquarters (Chenopodium album, CHEAL); test: as above; conditions: pre-emerge, 14 days after application
# Procedure, shortened: as §1
# [14] = tested on: green foxtail (Setaria viridis, SETVI); test: as above; conditions: pre-emerge, 14 days after application
# Procedure, shortened: as §1
# [15] = tested on: velvetleaf (Abutilon theophrasti, ABUTH); test: as above; conditions: pre-emerge, 14 days after application
# Procedure, shortened: as §1
# [16] = tested on: barnyardgrass (Echinochloa crus-galli, ECHCG); test: as above; conditions: pre-emerge, 14 days after application
# Procedure, shortened: as §1
# [17] = tested on: ivyleaf morningglory (Ipomoea hederacea, IPOHE); test: as above; conditions: pre-emerge, 14 days after application
# Procedure, shortened: as §1
# [18] = tested on: johnsongrass (Sorghum halepense, SORHA); test: as above; conditions: pre-emerge, 14 days after application
# Procedure, shortened: as §1
# [19] = tested on: upland rice (Oryza sp., var. Tebonnet, RICE); test: Pre-emerge test, crop safety; conditions: pre-emerge, 14 days after application; for phytotoxicity rating RICE (crop damage): scale 0-100; for phytotoxicity rating RICE: rating scale 0-100
# Procedure, shortened: as §1
# [20] = tested on: field corn (Zea mays L., var. Dekalb 535, CORN); test: Pre-emerge test, crop safety; conditions: pre-emerge, 14 days after application; for phytotoxicity rating CORN (crop damage): scale 0-100; for phytotoxicity rating CORN: rating scale 0-100
# Procedure, shortened: as §1
# [21] = 250 g ai/ha, rating scale 0-100
smiles,measurement,setting,value
COc1ccc(-n2c(=O)cc(C(F)(F)F)n(C)c2=O)c(NC(=O)c2ccc3ccccc3c2)c1 [2-143],RICE phytotoxicity rating (crop damage),[1]; 63 g ai/ha,40
same,RICE phytotoxicity rating (crop damage),[1]; 250 g ai/ha,70
same,CORN phytotoxicity rating (crop damage),[2]; 63 g ai/ha,10
same,CORN phytotoxicity rating (crop damage),[2]; 250 g ai/ha,35
same,phytotoxicity rating AMARE,"[3]; 63 g ai/ha, scale 0-100",100
same,phytotoxicity rating AMARE,"[3]; 250 g ai/ha, scale 0-100",100
same,AMARE phytotoxicity rating,"[4]; 63 g ai/ha, rating scale 0-100",100
same,AMARE phytotoxicity rating,[4]; [21],100
same,CASOB phytotoxicity rating,[5]; 63 g ai/ha,70
same,CASOB phytotoxicity rating,[5]; 250 g ai/ha,100
same,DIGSA phytotoxicity rating,[6]; 63 g ai/ha,0
same,DIGSA phytotoxicity rating,[6]; 250 g ai/ha,40
same,SETVI phytotoxicity rating,[7]; 63 g ai/ha,0
same,SETVI phytotoxicity rating,[7]; 250 g ai/ha,40
same,ABUTH phytotoxicity rating,[8]; 63 g ai/ha,100
same,ABUTH phytotoxicity rating,[8]; 250 g ai/ha,100
same,ECHCG phytotoxicity rating,[9]; 63 g ai/ha,0
same,ECHCG phytotoxicity rating,[9]; 250 g ai/ha,30
same,IPOHE phytotoxicity rating,[10]; 63 g ai/ha,60
same,IPOHE phytotoxicity rating,[10]; 250 g ai/ha,100
same,phytotoxicity rating CASOB,"[11]; 63 g ai/ha, scale 0-100",0
same,phytotoxicity rating CASOB,"[11]; 250 g ai/ha, scale 0-100",90
same,phytotoxicity rating DIGSA,"[12]; 63 g ai/ha, scale 0-100",30
same,phytotoxicity rating DIGSA,"[12]; 250 g ai/ha, scale 0-100",100
same,phytotoxicity rating CHEAL,"[13]; 63 g ai/ha, scale 0-100",100
same,phytotoxicity rating CHEAL,"[13]; 250 g ai/ha, scale 0-100",100
same,phytotoxicity rating SETVI,"[14]; 63 g ai/ha, scale 0-100",30
same,phytotoxicity rating SETVI,"[14]; 250 g ai/ha, scale 0-100",70
same,phytotoxicity rating ABUTH,"[15]; 63 g ai/ha, scale 0-100",100
same,phytotoxicity rating ABUTH,"[15]; 250 g ai/ha, scale 0-100",100
same,phytotoxicity rating ECHCG,"[16]; 63 g ai/ha, scale 0-100",30
same,phytotoxicity rating ECHCG,"[16]; 250 g ai/ha, scale 0-100",85
same,phytotoxicity rating IPOHE,"[17]; 63 g ai/ha, scale 0-100",0
same,phytotoxicity rating IPOHE,"[17]; 250 g ai/ha, scale 0-100",35
same,phytotoxicity rating SORHA,"[18]; 63 g ai/ha, scale 0-100",30
same,phytotoxicity rating SORHA,"[18]; 250 g ai/ha, scale 0-100",80
same,phytotoxicity rating RICE (crop damage),[19]; 63 g ai/ha,20
same,phytotoxicity rating RICE (crop damage),[19]; 250 g ai/ha,65
same,phytotoxicity rating CORN (crop damage),[20]; 63 g ai/ha,0
same,phytotoxicity rating CORN (crop damage),[20]; 250 g ai/ha,5
COc1c(Cl)cc(Cl)c(-n2c(=O)cc(C(F)(F)F)n(C)c2=O)c1NC(=O)c1ccc2ccccc2c1 [2-144],RICE phytotoxicity rating (crop damage),[1]; 63 g ai/ha,15
same,RICE phytotoxicity rating (crop damage),[1]; 250 g ai/ha,35
same,CORN phytotoxicity rating (crop damage),[2]; 63 g ai/ha,40
same,CORN phytotoxicity rating (crop damage),[2]; 250 g ai/ha,20
same,phytotoxicity rating AMARE,"[3]; 63 g ai/ha, scale 0-100",99
same,phytotoxicity rating AMARE,"[3]; 250 g ai/ha, scale 0-100",100
same,AMARE phytotoxicity rating,"[4]; 63 g ai/ha, rating scale 0-100",75
same,AMARE phytotoxicity rating,[4]; [21],90
same,CASOB phytotoxicity rating,[5]; 63 g ai/ha,60
same,CASOB phytotoxicity rating,[5]; 250 g ai/ha,85
same,DIGSA phytotoxicity rating,[6]; 63 g ai/ha,0
same,DIGSA phytotoxicity rating,[6]; 250 g ai/ha,0
same,SETVI phytotoxicity rating,[7]; 63 g ai/ha,0
same,SETVI phytotoxicity rating,[7]; 250 g ai/ha,30
same,ABUTH phytotoxicity rating,[8]; 63 g ai/ha,85
same,ABUTH phytotoxicity rating,[8]; 250 g ai/ha,100
same,ECHCG phytotoxicity rating,[9]; 63 g ai/ha,0
same,ECHCG phytotoxicity rating,[9]; 250 g ai/ha,10
same,IPOHE phytotoxicity rating,[10]; 63 g ai/ha,60
same,IPOHE phytotoxicity rating,[10]; 250 g ai/ha,70
same,phytotoxicity rating CASOB,"[11]; 63 g ai/ha, scale 0-100",0
same,phytotoxicity rating CASOB,"[11]; 250 g ai/ha, scale 0-100",20
same,phytotoxicity rating DIGSA,"[12]; 63 g ai/ha, scale 0-100",20
same,phytotoxicity rating DIGSA,"[12]; 250 g ai/ha, scale 0-100",70
same,phytotoxicity rating CHEAL,"[13]; 63 g ai/ha, scale 0-100",100
same,phytotoxicity rating CHEAL,"[13]; 250 g ai/ha, scale 0-100",100
same,phytotoxicity rating SETVI,"[14]; 63 g ai/ha, scale 0-100",40
same,phytotoxicity rating SETVI,"[14]; 250 g ai/ha, scale 0-100",90
same,phytotoxicity rating ABUTH,"[15]; 63 g ai/ha, scale 0-100",70
same,phytotoxicity rating ABUTH,"[15]; 250 g ai/ha, scale 0-100",100
same,phytotoxicity rating ECHCG,"[16]; 63 g ai/ha, scale 0-100",20
same,phytotoxicity rating ECHCG,"[16]; 250 g ai/ha, scale 0-100",75
same,phytotoxicity rating IPOHE,"[17]; 63 g ai/ha, scale 0-100",0
same,phytotoxicity rating IPOHE,"[17]; 250 g ai/ha, scale 0-100",30
same,phytotoxicity rating SORHA,"[18]; 63 g ai/ha, scale 0-100",10
same,phytotoxicity rating SORHA,"[18]; 250 g ai/ha, scale 0-100",70
same,phytotoxicity rating RICE (crop damage),[19]; 63 g ai/ha,20
same,phytotoxicity rating RICE (crop damage),[19]; 250 g ai/ha,45
same,phytotoxicity rating CORN (crop damage),[20]; 63 g ai/ha,0
same,phytotoxicity rating CORN (crop damage),[20]; 250 g ai/ha,0
CCOC(=O)NNc1c(OC)c(Cl)cc(F)c1-n1c(=O)cc(C(F)(F)F)n(C)c1=O [15-6],Post-emerge Herbicidal Activity RICE (crop damage rating),[1]; 63 g ai/ha,60
same,Post-emerge Herbicidal Activity RICE (crop damage rating),[1]; 250 g ai/ha,95
same,Post-emerge Herbicidal Activity CORN (crop damage rating),[2]; 63 g ai/ha,25
same,Post-emerge Herbicidal Activity CORN (crop damage rating),[2]; 250 g ai/ha,80
same,phytotoxicity rating AMARE,"[3]; 63 g ai/ha, rating scale 0-100",100
same,phytotoxicity rating AMARE,[3]; [21],100
same,Post-emerge Herbicidal Activity AMARE (phytotoxicity rating),"[4]; 63 g ai/ha, rating scale 0-100 (0 no damage, 100 complete death)",50
same,Post-emerge Herbicidal Activity AMARE (phytotoxicity rating),[4]; [21],85
same,Post-emerge Herbicidal Activity CASOB (phytotoxicity rating),[5]; 63 g ai/ha,30
same,Post-emerge Herbicidal Activity CASOB (phytotoxicity rating),[5]; 250 g ai/ha,70
same,Post-emerge Herbicidal Activity DIGSA (phytotoxicity rating),[6]; 63 g ai/ha,0
same,Post-emerge Herbicidal Activity DIGSA (phytotoxicity rating),[6]; 250 g ai/ha,90
same,Post-emerge Herbicidal Activity SETVI (phytotoxicity rating),[7]; 63 g ai/ha,30
same,Post-emerge Herbicidal Activity SETVI (phytotoxicity rating),[7]; 250 g ai/ha,75
same,Post-emerge Herbicidal Activity ABUTH (phytotoxicity rating),[8]; 63 g ai/ha,100
same,Post-emerge Herbicidal Activity ABUTH (phytotoxicity rating),[8]; 250 g ai/ha,100
same,Post-emerge Herbicidal Activity ECHCG (phytotoxicity rating),[9]; 63 g ai/ha,20
same,Post-emerge Herbicidal Activity ECHCG (phytotoxicity rating),[9]; 250 g ai/ha,95
same,Post-emerge Herbicidal Activity IPOHE (phytotoxicity rating),[10]; 63 g ai/ha,50
same,Post-emerge Herbicidal Activity IPOHE (phytotoxicity rating),[10]; 250 g ai/ha,100
same,phytotoxicity rating CASOB,"[11]; 63 g ai/ha, rating scale 0-100",90
same,phytotoxicity rating CASOB,[11]; [21],100
same,phytotoxicity rating DIGSA,"[12]; 63 g ai/ha, rating scale 0-100",100
same,phytotoxicity rating DIGSA,[12]; [21],100
same,phytotoxicity rating CHEAL,"[13]; 63 g ai/ha, rating scale 0-100",100
same,phytotoxicity rating CHEAL,[13]; [21],100
same,phytotoxicity rating SETVI,"[14]; 63 g ai/ha, rating scale 0-100",99
same,phytotoxicity rating SETVI,[14]; [21],100
same,phytotoxicity rating ABUTH,"[15]; 63 g ai/ha, rating scale 0-100",100
same,phytotoxicity rating ABUTH,[15]; [21],100
same,phytotoxicity rating ECHCG,"[16]; 63 g ai/ha, rating scale 0-100",99
same,phytotoxicity rating ECHCG,[16]; [21],100
same,phytotoxicity rating IPOHE,"[17]; 63 g ai/ha, rating scale 0-100",100
same,phytotoxicity rating IPOHE,[17]; [21],100
same,phytotoxicity rating SORHA,"[18]; 63 g ai/ha, rating scale 0-100",100
same,phytotoxicity rating SORHA,[18]; [21],100
same,phytotoxicity rating RICE,[19]; 63 g ai/ha,98
same,phytotoxicity rating RICE,[19]; 250 g ai/ha,100
same,phytotoxicity rating CORN,[20]; 63 g ai/ha,95
same,phytotoxicity rating CORN,[20]; 250 g ai/ha,100
